Entries after “also recorded” stand apart in the source; their conditions may differ.
What was measured:
[1] = system: rats; assay: Contextual fear conditioning in rats; type: in vivo, rat; details: I.V.; furosemide 100 mg/kg, bumetanide 50 mg/kg
Procedure: Contextual fear conditioning involves pairing an aversive event, in this case moderate foot shock, with a distinctive environment. The strength of the fear memory is assessed using freezing, a species-typical defensive reaction in rats, marked by complete immobility, except for breathing. […] However, if they are allowed to explore the distinctive environment sometime before the immediate shock, they show intense anxiety and fear when placed back into the same environment. By procedurally dividing contextual fear conditioning into two phases, the effects of treatments on memory for the context (specifically a hippocampus based process) from learning the association between context and shock or experiencing the aversiveness of the shock (which depend upon emotional response circuitry including amygdala) were separately studied. […] The experiment employed 24 rats. […] Each rat was again placed into the same environment for 8 min during which time freezing was measured, as an index of Pavlovian conditioned fear. […] Measurement of freezing was accomplished through an overhead video camera connected to the microcomputer and was automatically scored using a specialty piece of software, FreezeFrame (OER Inc., Reston, Va.) Total freezing time was analyzed in a one-way analysis of variance (ANOVA) test, with drug dose as the […] factor.

[2] = system: Male CD-1 mice; assay: Chung (SNL) neuropathic pain study in mice; type: in vivo, mouse; details: for Other overt toxicity: in vivo, ip; for Reversal of tactile hypersensitivity: mice, i.p., SNL
Source text: Male CD-1 mice (25-35 g, Charles River) were used for all studies. Mice were housed in groups of five in Plexiglas chambers with food and water available ad libitum. All animals were maintained on a 12 hr light/dark cycle (lights on at 7:00 AM) in a temperature- and humidity-controlled animal colony. The health status of the animals used in this study was examined on arrival. Only animals in good health were acclimatized to laboratory conditions and used in the study. The acclimation period to the vivarium was a minimum of 7 days. All animal experiments were performed under an approved protocol in accordance with institutional guidelines and in accordance with the Guide for the Care and Use of Laboratory Animals as adopted and promulgated by the National Institutes of Health.
NTP has provided adequate amounts of NTP-2014 and NTP-2026 along with detailed instructions for preparing injection solutions. Gabapentin (Gallipot, St. Paul, Minn.) was dissolved in physiological saline. Injections were made using a 1-mL syringe with a 30-gauge needle at a volume of 10 ml/kg body weight. Animal body weights were measured prior to surgery and then on the morning of Day 7 (post-SNL testing). For i.p. drug administration, each mouse was firmly grasped by the nape of the neck and the tail was tucked between the last two fingers and palm of the technician's hand. The back of the mouse iwasarched slightly backwards exposing the abdominal region. The needle was inserted through the skin and abdominal musculature into the peritoneal cavity just off of the midline. Mice are immediately returned to the testing cage until behavioral testing.
NTP2026 (56, 100 and 180 mg/kg, i.p.); NTP 2014 (32, 56 and 100 mg/kg, i.p.); Gabapentin (100 mg/kg, i.p.); Vehicle Control (10% TPGS in benzoate buffer, i.p.).
SNL surgeries were performed based on the procedures described for rats (Kim and Chung, 1992) and modified for mice (Wang et al., 2001). Anesthesia was maintained with 0.5% halothane in O2 and body temperature was maintained using a heated water blanket. After surgical preparation of the mice, a 1-cm paraspinal incision was made at the level L4-S2. The L5 and L6 spinal nerves were exposed and tightly ligated using a 4-0 silk suture. The ligation was made distal to the dorsal root ganglion but before the fibers joined the sciatic nerve. The incisions were then closed, and animals are allowed to recover. […] Mechanical thresholds were determined by measuring the paw withdrawal threshold to probing with a series of calibrated von Frey filaments as described below.
Non-noxious sensory thresholds of the mice were determined by paw withdrawal […] to probing with a series of calibrated (0.02-2.34 gm on a logarithmic scale) von Frey filaments (“up and down” method) according to Chaplan et al. (1994) and analyzed using a Dixon (1980) nonparametric test. Results are expressed as the mean withdrawal thresholds. Baseline latencies/thresholds were determined prior to surgery, on the morning of Day 7, and then between 20-60 minutes post dosing with the test drugs. The post-drug time corresponds to the time of maximal activity for these compounds in the tail-flick assay.

[3] = molecular target: T1, α5β3γ2 GABAA receptor isoform (Homo sapiens, UniProt P18507+P28472+P31644); assay: Whole-cell patch clamp, transfected HEK-293T cells; type: cell-based, rat or human; details: 10 μM NTP-2014; 1 μM and 100 μM GABA
T1 construct: expressed in transfected cells; host or cells: HEK-293T, transient transfection
Procedure: (§1) The addition of GABA to […] activates the recombinant expressed GABAA receptors, creating an ion movement through the ion channel in the GABAA receptor. The electrical current generated by the movement of chloride ions into the cells can be quantified.
(§2) HEK-293T cells were transiently transfected with rat or human GABAA receptor subunits. Whole-cell patch clamp recording was performed at −50 mV unless otherwise indicated. Test compounds was diluted from a freshly made stock in DMSO, GABA was prepared from a frozen stock. For each experiment GABA or GABA+a test compound was applied for 5 seconds, and the electrical current generated by the movement of chloride ions into the cells was measured and recorded as a trace of current versus time.
(§3) Compounds described herein (e.g., NTP-2014) were tested at high and low GABA concentrations against multiple GABAA receptor isoforms (e.g., α1β3γ2, α2β3 γ2, α3β3γ2, α3β3γ2, α4β3γ2, α5β3γ2, α6β3γ2). […] NTP-2014 inhibits the currents in the parasynaptic α4 GABAA receptor isoform in GABAergic interneurons. […]

[4] = molecular target: T2, α6β3γ2 GABAA receptor isoform (Homo sapiens, UniProt P18507+P28472+Q16445); assay: Whole-cell patch clamp, transfected HEK-293T cells; type: cell-based, rat or human
T2 construct: expressed in transfected cells; host or cells: HEK-293T, transient transfection
Procedure: as §1, §2, §3

[5] = molecular target: T3, α2β3γ2 GABAA receptor isoform (Homo sapiens, UniProt P18507+P28472+P47869); assay: Whole-cell patch clamp, transfected HEK-293T cells; type: cell-based, rat or human; details: 10 μM NTP-2014; 1 μM and 100 μM GABA
T3 construct: expressed in transfected cells; host or cells: HEK-293T, transient transfection
Procedure: as §1, §2, §3

[6] = molecular target: T4, α1β3γ2 GABAA receptor isoform (Homo sapiens, UniProt P14867+P18507+P28472); assay: Whole-cell patch clamp, transfected HEK-293T cells; type: cell-based, rat or human; details: 10 μM NTP-2014
T4 construct: expressed in transfected cells; host or cells: HEK-293T, transient transfection
Procedure: as §1, §2, §3

[7] = molecular target: T5, δ-containing GABAA receptors (Homo sapiens, UniProt O14764); assay: Whole-cell patch clamp, transfected HEK-293T cells; type: cell-based, rat or human; details: 10 μM NTP-2014
T5 construct: expressed in transfected cells; host or cells: HEK-293T, transient transfection
Procedure: as §1, §2

[8] = in vivo; details: dog

T2 sequence (Q16445 20-453): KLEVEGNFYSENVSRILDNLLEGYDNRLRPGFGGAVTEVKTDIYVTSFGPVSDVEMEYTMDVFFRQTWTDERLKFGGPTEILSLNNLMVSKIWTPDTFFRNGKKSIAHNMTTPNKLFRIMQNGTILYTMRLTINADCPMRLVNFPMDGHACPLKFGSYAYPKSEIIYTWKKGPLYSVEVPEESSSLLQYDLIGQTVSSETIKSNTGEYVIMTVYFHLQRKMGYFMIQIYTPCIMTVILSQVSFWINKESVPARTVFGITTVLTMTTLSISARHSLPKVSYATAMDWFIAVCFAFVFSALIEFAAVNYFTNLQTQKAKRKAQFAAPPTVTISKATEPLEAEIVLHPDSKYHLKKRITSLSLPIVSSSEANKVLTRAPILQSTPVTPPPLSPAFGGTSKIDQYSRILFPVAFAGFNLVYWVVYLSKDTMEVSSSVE
T2 sequence (P28472 26-473): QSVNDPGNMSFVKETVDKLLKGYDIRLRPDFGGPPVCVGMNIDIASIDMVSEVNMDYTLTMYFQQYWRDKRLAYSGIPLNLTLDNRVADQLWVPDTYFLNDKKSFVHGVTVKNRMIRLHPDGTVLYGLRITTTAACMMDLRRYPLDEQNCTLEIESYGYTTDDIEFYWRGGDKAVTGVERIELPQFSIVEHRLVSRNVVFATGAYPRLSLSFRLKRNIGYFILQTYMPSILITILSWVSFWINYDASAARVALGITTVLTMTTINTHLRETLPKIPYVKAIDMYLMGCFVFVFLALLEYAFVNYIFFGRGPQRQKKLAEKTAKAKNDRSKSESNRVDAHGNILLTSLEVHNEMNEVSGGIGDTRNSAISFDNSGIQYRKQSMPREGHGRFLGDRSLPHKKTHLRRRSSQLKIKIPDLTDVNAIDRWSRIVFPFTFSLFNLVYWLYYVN
T2 sequence (P18507 40-475): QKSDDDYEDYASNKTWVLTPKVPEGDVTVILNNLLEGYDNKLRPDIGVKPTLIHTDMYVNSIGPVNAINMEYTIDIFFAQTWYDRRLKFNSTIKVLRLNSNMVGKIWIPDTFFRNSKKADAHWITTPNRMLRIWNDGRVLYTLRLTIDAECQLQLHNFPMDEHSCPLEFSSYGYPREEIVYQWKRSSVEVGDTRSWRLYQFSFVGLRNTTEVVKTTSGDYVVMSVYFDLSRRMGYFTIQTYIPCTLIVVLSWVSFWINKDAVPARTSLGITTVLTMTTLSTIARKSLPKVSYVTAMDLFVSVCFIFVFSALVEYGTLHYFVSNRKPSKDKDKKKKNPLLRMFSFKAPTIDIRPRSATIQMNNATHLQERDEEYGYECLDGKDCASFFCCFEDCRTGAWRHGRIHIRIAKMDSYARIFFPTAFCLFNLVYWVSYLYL
T1 sequence (P31644 32-462): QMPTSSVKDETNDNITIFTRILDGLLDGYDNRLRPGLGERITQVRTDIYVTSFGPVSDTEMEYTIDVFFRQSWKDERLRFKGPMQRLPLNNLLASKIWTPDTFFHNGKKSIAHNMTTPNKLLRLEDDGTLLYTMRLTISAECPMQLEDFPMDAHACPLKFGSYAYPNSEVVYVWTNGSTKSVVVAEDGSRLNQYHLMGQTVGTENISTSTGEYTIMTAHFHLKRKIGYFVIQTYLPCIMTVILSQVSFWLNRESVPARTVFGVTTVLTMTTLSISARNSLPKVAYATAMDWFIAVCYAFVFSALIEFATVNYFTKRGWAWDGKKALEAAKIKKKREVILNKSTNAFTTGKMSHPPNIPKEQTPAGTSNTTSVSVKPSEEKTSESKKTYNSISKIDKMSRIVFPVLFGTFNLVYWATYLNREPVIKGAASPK
T1 sequence (P28472 26-473): as the sequence (P28472 26-473) above
T1 sequence (P18507 40-475): as the sequence (P18507 40-475) above
T3 sequence (P47869 29-451): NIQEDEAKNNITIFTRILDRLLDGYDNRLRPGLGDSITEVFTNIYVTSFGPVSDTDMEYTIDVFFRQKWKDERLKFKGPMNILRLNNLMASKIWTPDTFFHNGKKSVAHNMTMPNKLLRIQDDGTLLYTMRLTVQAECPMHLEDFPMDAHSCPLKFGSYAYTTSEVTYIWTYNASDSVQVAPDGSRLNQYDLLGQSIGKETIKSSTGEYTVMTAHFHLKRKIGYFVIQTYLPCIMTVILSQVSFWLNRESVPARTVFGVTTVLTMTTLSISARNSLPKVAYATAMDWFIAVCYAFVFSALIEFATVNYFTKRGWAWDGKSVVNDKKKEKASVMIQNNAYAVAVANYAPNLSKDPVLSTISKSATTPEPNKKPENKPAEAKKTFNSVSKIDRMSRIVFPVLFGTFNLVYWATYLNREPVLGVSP
T3 sequence (P28472 26-473): as the sequence (P28472 26-473) above
T3 sequence (P18507 40-475): as the sequence (P18507 40-475) above
T4 sequence (P14867 28-456): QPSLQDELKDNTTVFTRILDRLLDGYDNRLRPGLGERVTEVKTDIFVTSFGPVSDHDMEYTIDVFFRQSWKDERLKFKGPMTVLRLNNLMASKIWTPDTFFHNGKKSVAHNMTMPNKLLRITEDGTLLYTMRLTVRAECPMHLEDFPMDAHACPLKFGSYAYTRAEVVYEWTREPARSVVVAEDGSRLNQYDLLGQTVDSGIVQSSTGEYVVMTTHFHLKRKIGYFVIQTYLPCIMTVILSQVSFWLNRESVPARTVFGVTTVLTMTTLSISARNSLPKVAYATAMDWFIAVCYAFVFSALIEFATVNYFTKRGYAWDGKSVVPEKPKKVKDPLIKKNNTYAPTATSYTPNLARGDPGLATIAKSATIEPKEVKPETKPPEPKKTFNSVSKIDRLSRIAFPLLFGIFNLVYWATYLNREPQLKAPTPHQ
T4 sequence (P28472 26-473): as the sequence (P28472 26-473) above
T4 sequence (P18507 40-475): as the sequence (P18507 40-475) above
T5 sequence (O14764 25-452): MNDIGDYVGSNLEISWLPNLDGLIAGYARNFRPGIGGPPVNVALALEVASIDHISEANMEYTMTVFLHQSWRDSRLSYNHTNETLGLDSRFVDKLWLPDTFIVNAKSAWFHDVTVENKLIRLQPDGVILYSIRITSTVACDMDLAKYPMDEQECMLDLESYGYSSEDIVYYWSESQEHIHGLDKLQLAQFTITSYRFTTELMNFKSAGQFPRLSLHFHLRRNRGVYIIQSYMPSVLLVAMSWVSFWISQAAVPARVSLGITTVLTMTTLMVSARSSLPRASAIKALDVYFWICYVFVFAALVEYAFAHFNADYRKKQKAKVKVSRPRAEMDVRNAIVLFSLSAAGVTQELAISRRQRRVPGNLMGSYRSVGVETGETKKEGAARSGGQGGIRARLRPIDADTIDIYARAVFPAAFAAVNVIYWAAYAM

Structure (SMILES) | Freezing vs vehicle alone [1] | Other overt toxicity ([2]; male, CD-1, mouse) | Reversal of tactile hypersensitivity [2] | Other overt toxicity ([2]; mouse) | Effect on current, α5 containing isoform [3] | Effect on currents, α6 containing receptors ([4]; 0.1, 1, 10 μM GABA) | EC50 ([4]; FIG. 41C, read-out: EC50 in α6 containing GABAA receptor isoforms) [µM] | IC50 ([4]; read-out: IC50, receptors containing the α6 subunit) [µM] | Effect on current, α2 containing isoform [5] | Effect on current, α1β3γ2 GABAA receptor isoform [6] | Effect on δ-containing receptors [7] | NOAEL at 14 day [8] [mg/kg]
CCCCNc1cc(C(=O)O)cc(S(N)(=O)=O)c1Oc1ccccc1 [Bumetanide, reference compound] | significantly less freezing |  |  |  |  |  |  |  |  |  |  | 
CCCCN(CCCC)c1cc(C(=O)O)cc(S(N)(=O)=O)c1Oc1ccccc1 [NTP-2014, 3-Aminosulfonyl-5-N,N-dibutylamino-4-phenoxybenzoic acid] |  | high dose group (180 mg/kg). No other | dose-dependent reversal of tactile hypersensitivity; also recorded: effective analgesic effects; also recorded: Dose-dependent, very significant | No other overt toxicity | slowed the decay rate; also recorded: inhibited | inhibited by NTP-2014 at higher GABA concentrations, but unaffected at lower GABA concentrations | 20.2 | 10 to 30 | slowed the decay rate; also recorded: inhibited | no significant activation; also recorded: amplitude of the current was not increased | unaffected | 4.5
CCCCNc1cc(C(=O)N(C)CCCN(C)C)cc(S(N)(=O)=O)c1Oc1ccccc1 [NTP-2026, N-(3-(Dimethylamino)propyl)-N-methyl 3-Aminosulfonyl-5-N-butylamino-4-phenoxybenzamide] |  |  | dose-dependent reversal of tactile hypersensitivity; also recorded: Dose-dependent, significant reversal of |  |  |  |  |  |  |  |  | 

From patent US9682928B2 (NeuroPro Therapeutics, Inc., priority 2009, dated 2017)
